According to publication PMC11969009 (Nature Communications, 2025):
Values joined by “and” are separate entries in the source; they are usually repeats but may differ in a detail not shown here. Equal values may be shown once. Read-outs that look alike come from different tables or passages of the source.

Assays:
CYP2B6 = CYP2B6 (Homo sapiens, UniProt P20813); test: biochemical
CYP3A4/5 [1] = details: human, microsomes, pH 7.4
CYP3A4/5 [2] = details: human, microsomes
CYP3A4/5 [3] = test: in vitro; details: human, microsomes, pH 7.4, CYP3A4/5 IC50
CYP3A4/5 [4] = test: in vitro; details: human, microsomes
[5] = system: SARS-CoV-2 clinical isolate VIC001; test: microbe, parasite or virus in culture; type: cell-based; details: for EC50: Severe acute respiratory syndrome coronavirus 2, Vero
SARS-CoV-2 P2 strain = system: SARS-CoV-2 P2 strain; set-up: species or system C57BL/6 (WT) mice; details: mouse, in vivo
SARS-CoV-2 PLpro [6] = target: T1, SARS-CoV-2 PLpro (Severe acute respiratory syndrome coronavirus 2, UniProt P0DTD1); test: biochemical; set-up: inhibition of SARS-CoV-2 PLpro, UbRh dose-response replicate value: unit: %; details: for IC50: IC50 (UbRh) SARS-CoV-2 PLpro
SARS-CoV-2 PLpro [7] = target: T1, SARS-CoV-2 PLpro; test: cell-based; type: cell-based
SARS-CoV-2 PLpro [8] = target: T1, SARS-CoV-2 PLpro
CYP2C8 = CYP2C8 (Homo sapiens, UniProt P10632); details: microsomes
Sequence of CYP2C8 (P10632 whole entry): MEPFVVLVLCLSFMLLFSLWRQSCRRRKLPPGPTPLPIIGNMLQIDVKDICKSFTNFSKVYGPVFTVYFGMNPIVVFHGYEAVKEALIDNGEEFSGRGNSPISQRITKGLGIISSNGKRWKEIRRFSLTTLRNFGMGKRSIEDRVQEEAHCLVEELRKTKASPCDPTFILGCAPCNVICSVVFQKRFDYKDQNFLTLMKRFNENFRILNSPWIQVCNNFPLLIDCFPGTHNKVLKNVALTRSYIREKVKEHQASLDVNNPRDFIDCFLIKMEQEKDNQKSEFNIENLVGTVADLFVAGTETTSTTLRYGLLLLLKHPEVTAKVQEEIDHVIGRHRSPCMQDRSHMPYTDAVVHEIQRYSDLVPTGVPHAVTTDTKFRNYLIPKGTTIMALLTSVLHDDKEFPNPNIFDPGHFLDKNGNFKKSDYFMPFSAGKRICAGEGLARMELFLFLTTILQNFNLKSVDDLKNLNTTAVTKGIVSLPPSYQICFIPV

[9] = read-out: Antiviral EC50 (plaque assay)

Sequence of CYP2B6 (P20813 whole entry): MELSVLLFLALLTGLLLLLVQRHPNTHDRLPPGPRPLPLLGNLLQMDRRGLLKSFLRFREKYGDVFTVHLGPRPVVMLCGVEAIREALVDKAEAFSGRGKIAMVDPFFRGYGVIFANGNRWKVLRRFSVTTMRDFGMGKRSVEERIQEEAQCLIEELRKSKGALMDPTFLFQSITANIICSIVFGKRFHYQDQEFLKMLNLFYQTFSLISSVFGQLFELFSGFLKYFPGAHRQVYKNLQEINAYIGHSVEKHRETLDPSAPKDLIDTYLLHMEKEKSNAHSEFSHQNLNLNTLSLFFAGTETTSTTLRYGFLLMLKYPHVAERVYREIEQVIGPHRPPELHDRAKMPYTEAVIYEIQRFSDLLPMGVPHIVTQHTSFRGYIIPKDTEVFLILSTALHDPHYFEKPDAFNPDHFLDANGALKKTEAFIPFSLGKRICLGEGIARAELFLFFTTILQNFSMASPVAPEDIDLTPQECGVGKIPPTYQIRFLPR

CC(C)(c1ccccc1)N1CCCCC1 [2-phenyl-2-(1-piperidinyl) propane, reference compound]
IC50 (CYP2B6): 8900 nM

CC(=O)N1CCN(c2ccc(OCC3COC(Cn4ccnc4)(c4ccc(Cl)cc4Cl)O3)cc2)CC1 (stereo not drawn) [Ketoconazole, reference compound]
IC50 (CYP3A4/5 [1]): 11 nM
Fold Shift IC50 (-NADPH) / IC50 (+NADPH) (CYP3A4/5 [2]): 0.68
IC50 (CYP3A4/5 [2]): 8.4 nM
IC50 (CYP3A4/5 [3]): 10 nM
IC50 shift (CYP3A4/5 [4]; Fold Shift IC50 (-NADPH) / IC50 (+NADPH)): 0.8
IC50 (CYP3A4/5 [4]; Time dependent CYP3A4/5 IC50 + NADPH): 16 nM
IC50 (CYP3A4/5 [4]; Time dependent CYP3A4/5 IC50 - NADPH): 13 nM

CC(C)(C)[C@H](NC(=O)C(F)(F)F)C(=O)N1C[C@H]2[C@@H]([C@H]1C(=O)N[C@H](C#N)C[C@@H]1CCNC1=O)C2(C)C [Nirmatrelvir, nirmatrelvir, reference compound]
EC50 [5, 9]: > 2000 nM
EC50 ([5]; read-out: Antiviral EC50 (plaque assay) with Pgp inhibitor): 530 nM
Ext Data Fig 2f dose response (0 µM = 100) ([5]; concentration 0.01 µM): 108.0460 and 101.2658 and 103.7975 and 95.0617 and 93.8272 and 95.6522
Ext Data Fig 2f dose response (0 µM = 100) ([5]; concentration 0.02 µM): 90.8046 and 108.8608 and 111.3924 and 104.9383 and 98.7654 and 104.3478
Ext Data Fig 2f dose response (0 µM = 100) ([5]; concentration 0.04 µM): 97.7011 and 96.2025 and 105.0633 and 97.5309 and 90.1235 and 85.5072
Ext Data Fig 2f dose response (0 µM = 100) ([5]; concentration 0.08 µM): 93.1034 and 89.8734 and 106.3291 and 109.8765 and 100.0000 and 102.8986
Ext Data Fig 2f dose response (0 µM = 100) ([5]; concentration 0.3 µM): 104.5977 and 108.8608 and 102.5316 and 58.0247 and 83.9506 and 71.0145
antiviral activity (lung viral burden), mild model (SARS-CoV-2 P2 strain): no antiviral activity

CO/N=C(/c1ccc2cc(OC)ccc2c1)C1CCCN(C2CCCC2)C1 (stereo not drawn) [WEHI-P2]
IC50 (UbRh) SARS-CoV-2 PLpro (SARS-CoV-2 PLpro [6]): submicromolar
inhibition of SARS-CoV-2 PLpro, UbRh dose-response replicate value (SARS-CoV-2 PLpro [6]; Conc 0.00498 µM): -15.8303 and -11.7404 and -10.1452 and -13.4396 and 0.4248 and 3.42 and -8.071 and -0.3979
inhibition of SARS-CoV-2 PLpro, UbRh dose-response replicate value (SARS-CoV-2 PLpro [6]; Conc 0.0149 µM): -13.9221 and -7.6283 and -8.496 and -15.6937 and -2.169 and 1.092 and -11.0387 and -1.093
inhibition of SARS-CoV-2 PLpro, UbRh dose-response replicate value (SARS-CoV-2 PLpro [6]; Conc 0.0448 µM): -10.8825 and -7.692 and -10.0063 and -17.0131 and 5.235 and 6.569 and -0.8163 and 5.0409
inhibition of SARS-CoV-2 PLpro, UbRh dose-response replicate value (SARS-CoV-2 PLpro [6]; Conc 3.63 µM): 108.558 and 106.946 and 112.788 and 102.006 and 101.573 and 101.518 and 102.655
inhibition at 3.63 µM (SARS-CoV-2 PLpro [6]; Conc 3.63 µM, read-out: inhibition of SARS-CoV-2 PLpro, UbRh dose-response replicate value): 110%
inhibition of SARS-CoV-2 PLpro, UbRh dose-response replicate value (SARS-CoV-2 PLpro [6]; Conc 98 µM): 126.525 and 125.26 and 122.237 and 129.703 and 110.886 and 110.306 and 111.038 and 109.523
inhibition of SARS-CoV-2 PLpro, UbRh dose-response replicate value (SARS-CoV-2 PLpro [6]; Conc […]): 108.844
IC50 (SARS-CoV-2 PLpro [6]): 397 nM
IC50 (SARS-CoV-2 PLpro [6]; Supplementary Fig. 2b): 645 nM
inhibition at […] (SARS-CoV-2 PLpro [6]; read-out: inhibition of SARS-CoV-2 PLpro, UbRh dose-response replicate value): 127% and 123% and 74.5%
EC50 (SARS-CoV-2 PLpro [7]): 11000 nM
FRET EC50 (cellular) (SARS-CoV-2 PLpro [7]): micromolar cellular activity
EC50 [5, 9]: > 2000 nM
Molar Mass (kDa) (SARS-CoV-2 PLpro [8]): 34.0141 kDa and 34.3179 kDa and 34.334 kDa
observed molar mass of PLpro (SEC-MALS) (SARS-CoV-2 PLpro [8]): 34.2 kDa

quercitin [reference compound]
IC50 (CYP2C8): 2300 nM
